Measurements: PubChem BioAssay (NCI)
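Tested at 5 concentrations; 48 h exposure; 96-well plates; endpoints linearly interpolated, else capped at highest concentration. At the TGI there is no net growth.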

How the values were obtained:
Test in all cases: NCI anticancer screen, dose series, 48 h
SN12C renal = tested on: SN12C renal
SK-MEL-28 melanoma = tested on: SK-MEL-28 melanoma
HOP-92 NSCLC = tested on: HOP-92 NSCLC
SF-539 CNS = tested on: SF-539 CNS
786-0 renal = tested on: 786-0 renal
MCF7 breast = tested on: MCF7 breast
HCT-116 colon = tested on: HCT-116 colon
LOX IMVI melanoma = tested on: LOX IMVI melanoma
HCC-2998 colon = tested on: HCC-2998 colon
SR leukemia = tested on: SR leukemia
NCI/ADR-RES ovarian = tested on: NCI/ADR-RES ovarian
MDA-MB-435 = tested on: MDA-MB-435
HCT-15 colon = tested on: HCT-15 colon
K-562 leukemia = tested on: K-562 leukemia
MDA-MB-231 breast = tested on: MDA-MB-231 breast
CCRF-CEM leukemia = tested on: CCRF-CEM leukemia
UACC-257 melanoma = tested on: UACC-257 melanoma
KM12 colon = tested on: KM12 colon
SF-268 CNS = tested on: SF-268 CNS
MOLT-4 leukemia = tested on: MOLT-4 leukemia
DU-145 prostate = tested on: DU-145 prostate
OVCAR-3 ovarian = tested on: OVCAR-3 ovarian
SK-MEL-2 melanoma = tested on: SK-MEL-2 melanoma
HL-60(TB) leukemia = tested on: HL-60(TB) leukemia
TK-10 renal = tested on: TK-10 renal
U251 CNS = tested on: U251 CNS
HS 578T breast = tested on: HS 578T breast
OVCAR-8 ovarian = tested on: OVCAR-8 ovarian
MALME-3M melanoma = tested on: MALME-3M melanoma
A549 NSCLC = tested on: A549 NSCLC
UO-31 renal = tested on: UO-31 renal
NCI-H23 lung = tested on: NCI-H23 lung
MDA-N = tested on: MDA-N
NCI-H522 lung = tested on: NCI-H522 lung
RPMI-8226 leukemia = tested on: RPMI-8226 leukemia
HOP-62 NSCLC = tested on: HOP-62 NSCLC
ACHN renal = tested on: ACHN renal
BT-549 breast = tested on: BT-549 breast
SF-295 CNS = tested on: SF-295 CNS
EKVX NSCLC = tested on: EKVX NSCLC
UACC-62 melanoma = tested on: UACC-62 melanoma
PC-3 prostate = tested on: PC-3 prostate
M14 melanoma = tested on: M14 melanoma
CAKI-1 renal = tested on: CAKI-1 renal
T-47D breast = tested on: T-47D breast
COLO 205 colon = tested on: COLO 205 colon
SW-620 colon = tested on: SW-620 colon
SNB-75 CNS = tested on: SNB-75 CNS
OVCAR-4 ovarian = tested on: OVCAR-4 ovarian
IGROV1 ovarian = tested on: IGROV1 ovarian
NCI-H226 lung = tested on: NCI-H226 lung
SK-OV-3 ovarian = tested on: SK-OV-3 ovarian
SK-MEL-5 melanoma = tested on: SK-MEL-5 melanoma
OVCAR-5 ovarian = tested on: OVCAR-5 ovarian
HT29 colon = tested on: HT29 colon
SNB-19 CNS = tested on: SNB-19 CNS
A498 renal = tested on: A498 renal
NCI-H460 lung = tested on: NCI-H460 lung

COc1cc2c(cc1OC)C1c3ccccc3CCCN1CC2 (configuration not stated)
TGI (SN12C renal): > 100 µM | TGI (SK-MEL-28 melanoma): > 100 µM | TGI (HOP-92 NSCLC): > 100 µM | TGI (SF-539 CNS): > 100 µM | TGI (786-0 renal): > 100 µM | TGI (MCF7 breast): > 100 µM | TGI (HCT-116 colon): > 100 µM | TGI (LOX IMVI melanoma): > 100 µM | TGI (HCC-2998 colon): > 100 µM | TGI (SR leukemia): > 100 µM | TGI (NCI/ADR-RES ovarian): > 100 µM | TGI (MDA-MB-435): > 100 µM | TGI (HCT-15 colon): > 100 µM | TGI (K-562 leukemia): > 100 µM | TGI (MDA-MB-231 breast): > 100 µM | TGI (CCRF-CEM leukemia): > 100 µM | TGI (UACC-257 melanoma): > 100 µM | TGI (KM12 colon): > 100 µM | TGI (SF-268 CNS): > 100 µM | TGI (MOLT-4 leukemia): > 100 µM | TGI (DU-145 prostate): > 100 µM | TGI (OVCAR-3 ovarian): > 100 µM | TGI (SK-MEL-2 melanoma): > 100 µM | TGI (HL-60(TB) leukemia): > 100 µM | TGI (TK-10 renal): > 100 µM | TGI (U251 CNS): > 100 µM | TGI (HS 578T breast): > 100 µM | TGI (OVCAR-8 ovarian): > 100 µM | TGI (MALME-3M melanoma): > 100 µM | TGI (A549 NSCLC): > 100 µM | TGI (UO-31 renal): > 100 µM | TGI (NCI-H23 lung): > 100 µM | TGI (MDA-N): > 100 µM | TGI (NCI-H522 lung): > 100 µM | TGI (RPMI-8226 leukemia): > 100 µM | TGI (HOP-62 NSCLC): > 100 µM | TGI (ACHN renal): > 100 µM | TGI (BT-549 breast): > 100 µM | TGI (SF-295 CNS): > 100 µM | TGI (EKVX NSCLC): > 100 µM | TGI (UACC-62 melanoma): > 100 µM | TGI (PC-3 prostate): > 100 µM | TGI (M14 melanoma): > 100 µM | TGI (CAKI-1 renal): > 100 µM | TGI (T-47D breast): > 100 µM | TGI (COLO 205 colon): > 100 µM | TGI (SW-620 colon): > 100 µM | TGI (SNB-75 CNS): > 100 µM | TGI (OVCAR-4 ovarian): > 100 µM | TGI (IGROV1 ovarian): > 100 µM | TGI (NCI-H226 lung): > 100 µM | TGI (SK-OV-3 ovarian): > 100 µM | TGI (SK-MEL-5 melanoma): > 100 µM | TGI (OVCAR-5 ovarian): > 100 µM | TGI (HT29 colon): > 100 µM | TGI (SNB-19 CNS): > 100 µM | TGI (A498 renal): > 100 µM

Cc1c2ccccc2c(C)n2c1nc1cc3ccccc3cc12
TGI (SN12C renal): > 10 µM | TGI (SK-MEL-28 melanoma): 2.92 µM | TGI (HOP-92 NSCLC): 8.89 µM | TGI (SF-539 CNS): 2.86 µM | TGI (786-0 renal): 2.18 µM | TGI (MCF7 breast): 1.6 µM | TGI (HCT-116 colon): 2.71 µM | TGI (HCC-2998 colon): 3.27 µM | TGI (SR leukemia): 7.34 µM | TGI (NCI/ADR-RES ovarian): 2.38 µM | TGI (MDA-MB-435): 3.07 µM | TGI (HCT-15 colon): 3.67 µM | TGI (K-562 leukemia): > 10 µM | TGI (MDA-MB-231 breast): 2.71 µM | TGI (CCRF-CEM leukemia): 6.65 µM | TGI (UACC-257 melanoma): > 10 µM | TGI (KM12 colon): 2.62 µM | TGI (SF-268 CNS): 3.32 µM | TGI (NCI-H460 lung): 2.55 µM | TGI (MOLT-4 leukemia): 3.78 µM | TGI (DU-145 prostate): 2.78 µM | TGI (OVCAR-3 ovarian): 2.18 µM | TGI (SK-MEL-2 melanoma): 4.99 µM | TGI (HL-60(TB) leukemia): 4.59 µM | TGI (TK-10 renal): 8.43 µM | TGI (U251 CNS): 3.7 µM | TGI (HS 578T breast): 3.56 µM | TGI (OVCAR-8 ovarian): 2.21 µM | TGI (MALME-3M melanoma): 2.63 µM | TGI (A549 NSCLC): 3.6 µM | TGI (NCI-H23 lung): 2.8 µM | TGI (MDA-N): 2.89 µM | TGI (NCI-H522 lung): 4.88 µM | TGI (RPMI-8226 leukemia): 6.13 µM | TGI (HOP-62 NSCLC): 2.76 µM | TGI (ACHN renal): > 10 µM | TGI (BT-549 breast): 3.98 µM | TGI (SF-295 CNS): 2.28 µM | TGI (EKVX NSCLC): 9.75 µM | TGI (UACC-62 melanoma): 3.9 µM | TGI (PC-3 prostate): 2.79 µM | TGI (M14 melanoma): 2.76 µM | TGI (CAKI-1 renal): 2.89 µM | TGI (T-47D breast): > 10 µM | TGI (COLO 205 colon): 2.82 µM | TGI (SW-620 colon): > 10 µM | TGI (SNB-75 CNS): 3.48 µM | TGI (OVCAR-4 ovarian): 3.12 µM | TGI (IGROV1 ovarian): 2.53 µM | TGI (SK-OV-3 ovarian): 7.74 µM | TGI (SK-MEL-5 melanoma): 4.46 µM | TGI (OVCAR-5 ovarian): 2.29 µM | TGI (HT29 colon): 2.15 µM | TGI (SNB-19 CNS): 5.01 µM

CCOC(=O)C(CS)NC(=O)CCCCCCCC(=O)O (configuration not stated)
TGI (SN12C renal): > 100 µM | TGI (SK-MEL-28 melanoma): > 100 µM | TGI (HOP-92 NSCLC): > 100 µM | TGI (786-0 renal): > 100 µM | TGI (MCF7 breast): > 100 µM | TGI (HCT-116 colon): > 100 µM | TGI (LOX IMVI melanoma): > 100 µM | TGI (HCC-2998 colon): > 100 µM | TGI (SR leukemia): > 100 µM | TGI (NCI/ADR-RES ovarian): > 100 µM | TGI (MDA-MB-435): > 100 µM | TGI (HCT-15 colon): > 100 µM | TGI (K-562 leukemia): > 100 µM | TGI (MDA-MB-231 breast): > 100 µM | TGI (CCRF-CEM leukemia): > 100 µM | TGI (UACC-257 melanoma): > 100 µM | TGI (KM12 colon): > 100 µM | TGI (NCI-H460 lung): > 100 µM | TGI (MOLT-4 leukemia): > 100 µM | TGI (DU-145 prostate): > 100 µM | TGI (OVCAR-3 ovarian): > 100 µM | TGI (SK-MEL-2 melanoma): > 100 µM | TGI (HL-60(TB) leukemia): > 100 µM | TGI (TK-10 renal): > 100 µM | TGI (U251 CNS): > 100 µM | TGI (HS 578T breast): > 100 µM | TGI (OVCAR-8 ovarian): > 100 µM | TGI (MALME-3M melanoma): > 100 µM | TGI (A549 NSCLC): > 100 µM | TGI (UO-31 renal): > 100 µM | TGI (NCI-H23 lung): > 100 µM | TGI (MDA-N): > 100 µM | TGI (NCI-H522 lung): > 100 µM | TGI (RPMI-8226 leukemia): > 100 µM | TGI (HOP-62 NSCLC): > 100 µM | TGI (ACHN renal): > 100 µM | TGI (BT-549 breast): > 100 µM | TGI (SF-295 CNS): > 100 µM | TGI (EKVX NSCLC): > 100 µM | TGI (UACC-62 melanoma): > 100 µM | TGI (PC-3 prostate): > 100 µM | TGI (M14 melanoma): > 100 µM | TGI (CAKI-1 renal): > 100 µM | TGI (T-47D breast): > 100 µM | TGI (COLO 205 colon): > 100 µM | TGI (SW-620 colon): > 100 µM | TGI (SNB-75 CNS): > 100 µM | TGI (OVCAR-4 ovarian): > 100 µM | TGI (IGROV1 ovarian): > 100 µM | TGI (NCI-H226 lung): > 100 µM | TGI (SK-OV-3 ovarian): > 100 µM | TGI (SK-MEL-5 melanoma): > 100 µM | TGI (OVCAR-5 ovarian): > 100 µM | TGI (HT29 colon): > 100 µM | TGI (SNB-19 CNS): > 100 µM | TGI (A498 renal): > 100 µM
